Read-outs that look alike come from different tables or passages of the source.
Key:
Sprague-Dawley rats = assay: Assessment of wake promotion in Sprague-Dawley rats (EEG/EMG); assay type: in vivo; details: Rattus norvegicus, 3 mpk, male Sprague-Dawley rats, dosed at ZT5, 6-hour post-dose period, read-out: Mean cortical activation time (% vehicle treatment)
Experimental: Wake promotion was assessed using electroencephalography (EEG) and electromyography (EMG) in adult male Sprague-Dawley rats (350-600 g). All rats (Charles River Laboratories, Raleigh, NC, USA) were intraperitoneally implanted with telemetry devices (F50-EEE, Data Sciences International Inc., M/N, USA) under isoflurane anesthesia. For EEG, stainless steel screws were implanted over frontal cortex and parietal cortex, and reference screws were placed over cerebellum. Additionally, an electrode was placed in neck muscle for EMG. Rats were given carprofen post-surgery and underwent a 7 to 10-day recovery period. Rats habituated to the experimental room for 7 days and were maintained on a 12-hour light-dark cycle.
EEG and EMG data were recorded using the DSI telemetry system and Ponemah software (Data Sciences International Inc., MN, USA). Sleep-wake stages were scored both manually and with Somnivore, a supervised machine learning software platform, in 10 second epocs. Records were visually inspected as needed post-processing.
All test compounds were dissolved in 5% DMSO and suspended in 95% saline with 0.5% methylcellulose and 0.5% tween. […] Unless otherwise indicated, all compounds were dosed orally. Recordings for each rat were initiated immediately after dosing and lasted for 6 hours post-dose.
Two key endpoints include wakefulness time and cortical activation time. Wakefulness time is derived from the sleep-wake stage analysis. Cortical activation time is based on the duration in which frontal gamma oscillatory activity (30-100 Hz), a key feature of wakefulness, was elevated relative to a pre-treatment baseline. Mean cortical activation time was computed relative to vehicle treatment for the 6-hour post-dose period.

MDR1 = assay: MDCK-MDR1 permeability assay; assay type: in vitro ADME; details: dog; for Papp A→B at 2 h, 3 μM: MDCK-MDR1, MDCK-MDR1 cells, apical to basolateral, 3 μM test compound, 2 hours at 37 degrees C; for efflux ratio at 2 h, 3 μM: MDCK-MDR1, Papp (basolateral to apical) divided by Papp (apical to basolateral), MDCK-MDR1 cells, read-out: Efflux ratio (ER)
Outline: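 Bidirectional transport across MDCK-MDR1 monolayers with test compound at 3 μM in HBSS, Lucifer Yellow 100 μM co-dosed as integrity marker; 2 h at 37 °C, donor and receiver quantified by LC-MS/MS. Papp = dQ/dt × 1/(A×C0); efflux ratio = Papp(B→A)/Papp(A→B), ER>2 taken as active transport.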

human hepatocytes = assay: Hepatocytes stability assay (human hepatocytes); assay type: in vitro ADME; details: scaled hepatic clearance divided by liver blood flow, fu assumed unity
Outline: (§1)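 Cryopreserved pooled (50 donors, mixed gender) human hepatocytes at 1×10^6 cells/mL in Krebs-Henseleit buffer with 1 μM compound (0.1% DMSO), 37 degrees C, sampled 0–240 min. Parent depletion by LC-MS/MS; first-order fit gave T1/2 and CLint, scaled to hepatic clearance via well-stirred model (fu assumed 1); extraction ratio = CL,hep/liver blood flow.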

[1] = Hepatocytes stability assay (human hepatocytes); assay type: in vitro ADME; details: both sexes, cryopreserved hepatocytes, 1 μM test compound, 1×10^6 cell/mL, 37 degrees C, read-out: CLint (μL/min/million cells)
Outline: as §1

SMILES	response vs control in vivo at 3 mg/kg (Sprague-Dawley rats; PO) [%]	Papp A→B at 2 h, 3 μM (MDR1) [×10⁻⁶ cm/s]	efflux ratio at 2 h, 3 μM (MDR1)	Extraction Ratio (ER) (human hepatocytes)	hepatocyte CLint at 1 μM [1] [µL/min/1e6 cells]	response vs control in vivo at 3 mg/kg (Sprague-Dawley rats; SC) [%]
CS(=O)(=O)N[C@@H]1CCCN2C(=O)COc3cccc(F)c3[C@H]3CC[C@H](CC3)OC[C@H]12 (racemic) [Compound 49]	340	0.72	36	0.64	12	–
COC(=O)N1CCC[C@H](NS(C)(=O)=O)[C@@H]1CO[C@H]1CC[C@@H](c2ccccc2)CC1 [methyl (2R,3S)-3-((methylsulfonyl)amino)-2-(((cis-4-phenylcyclohexyl)oxy)methyl)-piperidine-1-carboxylate, reference compound]	–	5.9	4	0.88	51	119
